Format in all cases: cell-based
One test concerns the target T1, BTK (Homo sapiens, UniProt Q06187).
T1 construct: endogenous in cells; host or cells: Mino cells
The test is described as follows: BTK degradation activity test in Mino cells. The following applies: 16 h incubation, Western blot or Elisa. The essentials: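 Mino cells treated with a concentration series of compound for 16 h, then lysed; total protein by BCA. BTK quantified by Western blot or ELISA, degradation rate calculated against blank control, and DC50 fitted from the degradation curve.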
Background: Immunoblotting shows a protein as a band on a membrane.

Another test deals with OCI-LY10 cells. Description: Inhibitory activity on OCI-LY10 cell proliferation (MTS). The settings on record: Homo sapiens, 72 h. The method, then:
(§1) The anti-tumor efficacy of the compounds was tested by measuring their inhibitory effects on OCI-LY10 and Mino cell proliferation. OCI-LY10 and Mino cells were cultured in RPMI-1640 medium containing 10% fetal calf serum. OCI-LY10 and Mino cells were digested, inoculated in a 96-well plate at a cell concentration of 10000 cells/well, and incubated overnight at 37° C., 5% CO2. Compounds of different concentrations (1000 nM, 4-fold dilution, 8 points) were added to the 96-well plate and incubated for 72 h (LY10) or 168 h (Mino) at 37° C. and 5% CO2, and then 20 uL of MTS was added to each well. After incubation for 2 h, 25 μl of 10% SDS was added to each well to terminate the reaction. The absorbance at 490 nm and 650 nm were measured with a microplate reader. IC50 was calculated using GraphPad Prism 5.0.

The test system of the next test is Mino cells. Description: Inhibitory activity on Mino cell proliferation (MTS). The following applies: Homo sapiens, 168 h incubation. How it is done: as §1

Molecules are shown by their SMILES. A value given as a limit tells only on which side of the number the result lay.

T1 sequence (Q06187 whole entry): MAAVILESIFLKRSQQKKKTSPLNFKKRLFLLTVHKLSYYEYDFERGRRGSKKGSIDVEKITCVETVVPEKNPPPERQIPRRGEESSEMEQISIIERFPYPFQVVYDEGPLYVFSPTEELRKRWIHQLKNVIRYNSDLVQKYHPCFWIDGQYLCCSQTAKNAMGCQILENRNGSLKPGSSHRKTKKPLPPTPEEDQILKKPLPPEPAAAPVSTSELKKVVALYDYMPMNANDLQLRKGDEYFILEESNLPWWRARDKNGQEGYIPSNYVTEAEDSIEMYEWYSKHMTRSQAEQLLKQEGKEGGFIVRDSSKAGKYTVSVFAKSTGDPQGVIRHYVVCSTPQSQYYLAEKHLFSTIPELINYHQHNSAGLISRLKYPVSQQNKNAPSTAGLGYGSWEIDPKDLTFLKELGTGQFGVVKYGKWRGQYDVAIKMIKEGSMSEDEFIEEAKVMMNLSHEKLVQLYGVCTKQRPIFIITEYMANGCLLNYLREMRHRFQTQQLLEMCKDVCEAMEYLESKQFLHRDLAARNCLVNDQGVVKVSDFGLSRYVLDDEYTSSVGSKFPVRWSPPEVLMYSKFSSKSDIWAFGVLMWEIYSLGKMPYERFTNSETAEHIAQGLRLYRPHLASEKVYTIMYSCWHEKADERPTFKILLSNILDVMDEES

One may read the DC50 as the midpoint of the concentration-degradation curve. In general, IC50 refers to the concentration at which inhibition is half-maximal. Low values mean greater potency, high ones weaker potency. In turn, `CN1CCN([C@@H]2CCCN(c3nnc(C(N)=O)c(Nc4ccc(C5CCN(CC6CCN(c7ccc8c(c7)C(=O)N(C7CCC(=O)NC7=O)C8=O)C6)CC5)cc4)n3)C2)C1=O` (stereo partly drawn) [Compound 124, 5-((4-(1-((1-(2-(2,6-dioxopiperidin-3-yl)-1,3-dioxoisoindolin-5-yl)pyrrolidin-3-yl)methyl)piperidin-4-yl)phenyl)amino)-3-((R)-3-(3-methyl-2-oxoimidazolin-1-yl)piperidin-1-yl)-1,2,4-triazin-6-carboxamide] registered a DC50 at BTK below 1 nM. Moreover, the 50% inhibitory concentration (IC50) with OCI-LY10 cells is below 0.26 nM; in the test on Mino cells it was 4.95 nM.
For the molecule `CN1CCN([C@@H]2CCCN(c3nnc(C(N)=O)c(Nc4ccc(C5CCN(CC6(C)CCN(c7ccc8c(c7)C(=O)N(C7CCC(=O)NC7=O)C8=O)C6)CC5)cc4)n3)C2)C1=O` (stereo partly drawn) [Compound 120, 5-((4-(1-((1-(2-(2,6-dioxopiperidin-3-yl)-1,3-dioxoisoindolin-5-yl)-3-methylpyrrolidin-3-yl)methyl)piperidin-4-yl)phenyl)amino)-3-((R)-3-(3-methyl-2-oxoimidazolin-1-yl)piperidin-1-yl)-1,2,4-triazin-6-carboxamide], on BTK, the 50% degradation concentration (DC50) was below 1 nM. The IC50 was 0.21 nM with OCI-LY10 cells and 1.76 nM with Mino cells.
For the molecule `CN1CCN([C@@H]2CCCN(c3nnc(C(N)=O)c(Nc4ccc(C5CCN(C(=O)C6CCN(c7ccc8c(c7)C(=O)N(C7CCC(=O)NC7=O)C8=O)C6)CC5)cc4)n3)C2)C1=O` (stereo partly drawn) [Compound 127, 5-((4-(1-(1-(2-(2,6-dioxopiperidin-3-yl)-1,3-dioxoisoindolin-5-yl)pyrrolidin-3-carbonyl)piperidin-4-yl)phenyl)amino)-3-((R)-3-(3-methyl-2-oxoimidazolin-1-yl)piperidin-1-yl)-1,2,4-triazin-6-carboxamide], the DC50 on BTK is below 1 nM. Also, the IC50 in the test with OCI-LY10 cells was found to be 0.39 nM; with Mino cells, 2.04 nM.
`NC(=O)c1nnc(N2CCC[C@@H](N3CCN(CC(F)(F)F)C3=O)C2)nc1Nc1ccc(C2CCN(CC3CCN(c4ccc5c(c4)C(=O)N(C4CCC(=O)NC4=O)C5=O)CC3)CC2)cc1` (stereo partly drawn) [Compound 141, 5-((4-(1-((1-(2-(2,6-dioxopiperidin-3-yl)-1,3-dioxoisoindolin-5-yl)piperidin-4-yl)methyl)piperidin-4-yl)phenyl)amino)-3-((R)-3-(2-oxo-3-(2,2,2-trifluoroethyl)imidazolin-1-yl)piperidin-1-yl)-1,2,4-triazin-6-carboxamide]: on BTK, the DC50 was below 1 nM. In addition, the IC50 in the test on OCI-LY10 cells is 2.19 nM; in the test with Mino cells it was 3.92 nM.
The like results for `Cc1cc(N2CCC(CN3CCN(c4ccc(Nc5nc(N6CCC[C@@H](N7CCN(C)C7=O)C6)nnc5C(N)=O)cc4F)CC3)CC2)ccc1C(=O)NC1CCC(=O)NC1=O` (stereo partly drawn) [Compound 180, 5-((4-(4-((1-(4-((2,6-dioxopiperidin-3-yl)carbamoyl)-3-methylphenyl)piperidin-4-yl)methyl)piperazin-1-yl)-3-fluorophenyl)amino)-3-((R)-3-(3-methyl-2-oxoimidazolidin-1-yl)piperidin-1-yl)-1,2,4-triazin-6-carboxamide] were, in that order, below 1 nM, below 1 nM and 1.07 nM.
With `CN1CCN([C@@H]2CCCN(c3nnc(C(N)=O)c(Nc4ccc(C5CCN(CC6CCN(c7ccc8c(c7)C(=O)N(C7CCC(=O)NC7=O)C8=O)CC6)CC5)c(F)c4)n3)C2)C1=O` (stereo partly drawn) [Compound 129, 5-((4-(1-((1-(2-(2,6-dioxopiperidin-3-yl)-1,3-dioxoisoindolin-5-yl)piperidin-4-yl)methyl)piperidin-4-yl)-3-fluorophenyl)amino)-3-((R)-3-(3-methyl-2-oxoimidazolin-1-yl)piperidin-1-yl)-1,2,4-triazin-6-carboxamide], on BTK, the DC50 is below 1 nM. In addition, the results for the IC50 in the test with OCI-LY10 cells and with Mino cells were 0.14 nM and 3.09 nM, respectively.
For `CN1CCN([C@@H]2CCCN(c3nnc(C(N)=O)c(Nc4ccc(N5CCN(CC6CCN(c7ccc(N8CCC(=O)NC8=O)cn7)CC6)CC5)c(F)c4)n3)C2)C1=O` [Compound 196, (R)-5-((4-(4-((1-(5-(2,4-dioxotetrahydropyrimidin-1(2H)-yl)pyridin-2-yl)piperidin-4-yl)methyl)piperazin-1-yl)-3-fluorophenyl)amino)-3-(3-(3-methyl-2-oxoimidazolidin-1-yl)piperidin-1-yl)-1,2,4-triazin-6-carboxamide], on BTK, the half-maximal degradation concentration (DC50) is below 1 nM. Further, the IC50 worked out at 0.52 nM in the test with OCI-LY10 cells and 3.77 nM in the test on Mino cells.
On BTK, `CN1CCN([C@@H]2CCCN(c3ncc(C(N)=O)c(Nc4ccc(C5CCN(CC6CCN(c7ccc8c(c7)C(=O)N(C7CCC(=O)NC7=O)C8=O)CC6)CC5)cc4)n3)C2)C1=O` (stereo partly drawn) [Compound 117, 4-((4-(1-((1-(2-(2,6-dioxopiperidin-3-yl)-1,3-dioxoisoindolin-5-yl)piperidin-4-yl)methyl)piperidin-4-yl)phenyl)amino)-2-((R)-3-(3-methyl-2-oxoimidazolin-1-yl)piperidin-1-yl)pyrimidin-5-carboxamide] returned a half-maximal degradation concentration (DC50) below 1 nM. The results for the IC50 with OCI-LY10 cells and in the test with Mino cells were 0.33 nM and 3.08 nM, respectively.
The molecule `CN1CCN([C@@H]2CCCN(c3nnc(C(N)=O)c(Nc4ccc(N5CCN(CC6CCN(c7ccc8c(c7)C(=O)N(C7CCC(=O)NC7=O)C8)CC6)CC5)c(F)c4)n3)C2)C1=O` (stereo partly drawn) [Compound 168, 5-((4-(4-((1-(2-(2,6-dioxopiperidin-3-yl)-3-oxoisoindolin-5-yl)piperidin-4-yl)methyl)piperazin-1-yl)-3-fluorophenyl)amino)-3-((R)-3-(3-methyl-2-oxoimidazolidin-1-yl)piperidin-1-yl)-1,2,4-triazin-6-carboxamide] registered a 50% degradation concentration (DC50) on BTK below 1 nM. Also, the IC50 in the test with OCI-LY10 cells was 0.79 nM; in the test on Mino cells, 3.77 nM.
Taken in the same sequence, the figures for `CN1CCN([C@@H]2CCCN(c3nnc(C(N)=O)c(Nc4ccc(N5CCN(CC6CCN(c7ccc(NC8CCC(=O)NC8=O)cn7)CC6)CC5)c(F)c4)n3)C2)C1=O` (stereo partly drawn) [Compound 203, 5-((4-(4-((1-(5-((2,6-dioxopiperidin-3-yl)amino)pyridin-2-yl)piperidin-4-yl)methyl)piperazin-1-yl)-3-fluorophenyl)amino)-3-((R)-3-(3-methyl-2-oxoimidazolidin-1-yl)piperidin-1-yl)-1,2,4-triazin-6-carboxamide] were below 1 nM, 2.65 nM and 1.25 nM.
In turn, `CN1CCN([C@@H]2CCCN(c3nnc(C(N)=O)c(Nc4ccc(C5CCN(CC6(F)CCN(c7ccc8c(c7)C(=O)N(C7CCC(=O)NC7=O)C8=O)C6)CC5)cc4)n3)C2)C1=O` (stereo partly drawn) [Compound 121, 5-((4-(1-((1-(2-(2,6-dioxopiperidin-3-yl)-1,3-dioxoisoindolin-5-yl)-3-fluoropyrrolidin-3-yl)methyl)piperidin-4-yl)phenyl)amino)-3-((R)-3-(3-methyl-2-oxoimidazolin-1-yl)piperidin-1-yl)-1,2,4-triazin-6-carboxamide] displayed a 50% degradation concentration (DC50) on BTK below 1 nM. The half-maximal inhibitory concentration (IC50) in the test on OCI-LY10 cells was determined as 0.74 nM; in the test on Mino cells, 3.75 nM.
Taken in the same sequence, the figures for `CN1CCN([C@@H]2CCCN(c3nnc(C(N)=O)c(Nc4ccc(N5CCN(CC6CCN(c7ccc8c(c7)CN(C7CCC(=O)NC7=O)C8=O)CC6)CC5)c(F)c4)n3)C2)C1=O` (stereo partly drawn) [Compound 167, 5-((4-(4-((1-(2-(2,6-dioxopiperidin-3-yl)-1-oxoisoindolin-5-yl)piperidin-4-yl)methyl)piperazin-1-yl)-3-fluorophenyl)amino)-3-((R)-3-(3-methyl-2-oxoimidazolidin-1-yl)piperidin-1-yl)-1,2,4-triazin-6-carboxamide] were below 1 nM, 0.45 nM and 2.42 nM.
In turn, `CN1C(=O)N([C@@H]2CCCN(c3nnc(C(N)=O)c(Nc4ccc(C5CCN(CC6CCN(c7ccc8c(c7)C(=O)N(C7CCC(=O)NC7=O)C8=O)CC6)CC5)cc4)n3)C2)CC12CC2` (stereo partly drawn) [Compound 138, 5-((4-(1-((1-(2-(2,6-dioxopiperidin-3-yl)-1,3-dioxoisoindolin-5-yl)piperidin-4-yl)methyl)piperidin-4-yl)phenyl)amino)-3-((R)-3-(4-methyl-5-oxo-4,6-diazaspiro[2.4]heptan-6-yl)piperidin-1-yl)-1,2,4-triazin-6-carboxamide] had a DC50 on BTK below 1 nM. In addition, the values for the IC50 with OCI-LY10 cells and in the test with Mino cells were 0.08 nM and 3.11 nM, respectively.
`CN1CCN([C@@H]2CCCN(c3ncc(C(N)=O)c(Nc4ccc(C5CCN(CC6CCN(c7ccc8c(c7)C(=O)N(C7CCC(=O)NC7=O)C8=O)C6)CC5)cc4)n3)C2)C1=O` (stereo partly drawn) [Compound 116, 4-((4-(1-((1-(2-(2,6-dioxopiperidin-3-yl)-1,3-dioxoisoindolin-5-yl)pyrrolidin-3-yl)methyl)piperidin-4-yl)phenyl)amino)-2-((R)-3-(3-methyl-2-oxoimidazolin-1-yl)piperidin-1-yl)pyrimidin-5-carboxamide] showed a DC50 at BTK below 1 nM. Further, the results for the half-inhibitory concentration (IC50) in the test on OCI-LY10 cells and in the test on Mino cells were 0.11 nM and 1.34 nM, respectively.
`CN1CCN([C@@H]2CCCN(c3nnc(C(N)=O)c(Nc4ccc(N5CCC(CN6CCN(c7ccc8c(c7)C(=O)N(C7CCC(=O)NC7=O)C8=O)CC6)CC5)cc4)n3)C2)C1=O` (stereo partly drawn) [Compound 119, 5-((4-(4-((4-(2-(2,6-dioxopiperidin-3-yl)-1,3-dioxoisoindolin-5-yl)piperazin-1-yl)methy 1)piperidin-1-yl)phenyl)amino)-3-((R)-3-(3-methyl-2-oxoimidazolin-1-yl)piperidin-1-yl)-1,2,4-triazin-6-carboxamide]: the DC50 on BTK was below 1 nM. Besides, the figures for the IC50 in the test with OCI-LY10 cells and in the test on Mino cells were 0.38 nM and 8.09 nM, respectively.

(Values after US20240360146A1, “BRUTON'S TYROSINE KINASE AND MUTANT DEGRADER, COMPOSITION AND APPLICATION THEREOF” (HANGZHOU HEALZEN THERAPEUTICS CO., LTD., priority 2021, published 2024).)
